Measured values taken from patent US9346761B2, “Arginine methyltransferase inhibitors and uses thereof” (Epizyme, Inc., priority 2013, dated 2016).

Experiments:
Human CARM1 (PRMT4) = target: T1, Human CARM1 (PRMT4) (Homo sapiens, UniProt Q86X55); assay: CARM1 biochemical assay (3H-SAM Flashplate, peptide substrate)
T1 construct: Flag-CARM1-His was eluted with 200 ug/ml FLAG peptide in buffer A; made in house; host or cells: HEK 293F cells (BacMam virus, pFastBacMam)
T1 sequence (Q86X55 with tags, fused parts or gaps isoform Q86X55-1): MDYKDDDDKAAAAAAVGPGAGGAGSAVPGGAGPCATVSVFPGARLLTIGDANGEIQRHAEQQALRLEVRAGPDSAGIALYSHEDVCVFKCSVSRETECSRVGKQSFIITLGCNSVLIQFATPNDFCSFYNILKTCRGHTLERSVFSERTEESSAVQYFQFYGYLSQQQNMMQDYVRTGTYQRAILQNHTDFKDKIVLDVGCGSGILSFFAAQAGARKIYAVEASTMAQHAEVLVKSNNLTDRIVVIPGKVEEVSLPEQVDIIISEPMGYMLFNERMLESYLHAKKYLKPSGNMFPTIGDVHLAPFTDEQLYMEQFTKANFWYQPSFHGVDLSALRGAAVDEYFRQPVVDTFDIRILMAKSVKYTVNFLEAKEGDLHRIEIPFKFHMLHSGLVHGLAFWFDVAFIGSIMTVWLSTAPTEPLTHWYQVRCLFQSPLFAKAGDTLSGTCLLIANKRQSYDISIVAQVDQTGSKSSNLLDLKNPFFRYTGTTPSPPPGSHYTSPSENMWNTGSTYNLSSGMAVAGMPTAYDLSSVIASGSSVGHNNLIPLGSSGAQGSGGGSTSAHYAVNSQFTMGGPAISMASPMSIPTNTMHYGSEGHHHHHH
Summary of the method: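 Methylation of a biotin-tagged H3 residues 16-30 peptide by recombinant CARM1 tracked via 3H-SAM incorporation, read as scintillation counts after streptavidin Flashplate capture. Compound and enzyme sat 30 min at room temperature first; unlabelled SAM at 300 uM final stopped the reaction. IC50 from Hill fits of % inhibition normalised to SAH and DMSO controls.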

Full-length human PRMT6 = target: T2, Full-length human PRMT6 (Homo sapiens, UniProt Q96LA8); assay: PRMT6 biochemical assay (3H-SAM Flashplate, peptide substrate)
T2 construct: Flag-PRMT6-His was eluted with 200 ug/ml FLAG peptide in the same buffer; made in house; host or cells: HEK 293F cells (BacMam virus, pFastBacMam)
Summary of the method: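 Read-out is 3H-methylated histone H4 (36-50) peptide bound to streptavidin Flashplates after a cold-SAM stop. Baculovirus-expressed Flag-PRMT6-His met compound for 30 min at room temperature before SAM and peptide; Bicine pH 7.6 buffer. IC50 fitted to % inhibition normalized to SAH (min) and DMSO (max).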

T2 sequence (Q96LA8 with tags, fused parts or gaps): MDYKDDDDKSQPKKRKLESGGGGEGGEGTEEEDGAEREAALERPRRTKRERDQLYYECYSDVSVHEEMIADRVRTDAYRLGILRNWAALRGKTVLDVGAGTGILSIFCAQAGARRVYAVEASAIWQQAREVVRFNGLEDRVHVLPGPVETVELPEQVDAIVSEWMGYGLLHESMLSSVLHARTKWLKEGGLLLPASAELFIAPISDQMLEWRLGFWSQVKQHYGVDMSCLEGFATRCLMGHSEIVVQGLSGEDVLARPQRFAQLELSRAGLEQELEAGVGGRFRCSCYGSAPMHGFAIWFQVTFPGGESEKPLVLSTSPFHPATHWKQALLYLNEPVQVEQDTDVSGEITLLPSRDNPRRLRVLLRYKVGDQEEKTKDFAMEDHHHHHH

| Structure (SMILES) | IC50 (Human CARM1 (PRMT4)) [nM] | IC50 (Full-length human PRMT6) [nM] |
| --- | --- | --- |
| CNCCN(C)Cc1c[nH]nc1-c1ccc(F)c(F)c1 [Compound 51] | 101 to 1000 | < 100 |
| CN(CCN)Cc1c[nH]nc1-c1ccc(OC(F)(F)F)cc1 [Compound 93] | 1010 to 3000 | < 100 |
| CN(CCN)Cc1cnn(C2COC2)c1-c1ccc(F)cc1 [Compound 81] | 1010 to 3000 | 101 to 1000 |
| Cc1ccc(Cl)c(-c2n[nH]cc2CN(C)CCN)c1 [Compound 91] | > 10000 | 101 to 1000 |
| COc1ccc(-c2n[nH]cc2CN(C)CCN)c(OC)c1 [Compound 87] | 3010 to 10000 | 101 to 1000 |
| CNCCN(C)Cc1c[nH]nc1-c1ccccc1O [Compound 35] | > 10000 | 101 to 1000 |
| CNCCN(C)Cc1c[nH]nc1-c1ccccc1F [Compound 48] | 3010 to 10000 | < 100 |
| CNCCN(C)Cc1c[nH]nc1-c1ccc(F)cc1 [Compound 2, N^1-((3-(4-fluorophenyl)-1H-pyrazol-4-yl)methyl)-N^1,N^2-dimethylethane-1,2-diamine] | – | < 100 |
| CN(CCN)Cc1c(-c2ccc(C#N)cc2)cnn1C [Compound 84] | > 10000 | – |
| CCCN(CCN)Cc1c[nH]nc1-c1ccc(F)cc1 [Compound 63] | > 10000 | 1010 to 3000 |
| CNCCN(C)Cc1c[nH]nc1-c1cccc(OC(F)(F)F)c1 [Compound 39] | 1010 to 3000 | < 100 |
| CC(C)Oc1ccc(-c2n[nH]cc2CN(C)CCN)cc1Cl [Compound 168] | – | < 100 |
| CN(CCN)Cc1cnn(C)c1-c1ccc(F)cc1 [Compound 4] | 101 to 1000 | < 100 |
| CN(CCN)Cc1cn(C)nc1-c1ccc(F)cc1 [Compound 3] | – | < 100 |
| CCNCCN(C)Cc1c[nH]nc1-c1ccc(F)cc1 [Compound 60] | > 10000 | < 100 |
| CNCCN(C)Cc1c[nH]nc1-c1cccc(N)c1 [Compound 32] | 1010 to 3000 | < 100 |
| CN(CCN)Cc1c[nH]nc1-c1ccc(C#N)cc1 [Compound 68] | 101 to 1000 | < 100 |
| CN(CCN)Cc1cn(CC2COC2)nc1-c1ccc(F)cc1 [Compound 79] | > 10000 | – |
| CN(CCN)Cc1c[nH]nc1-c1ccc(N2CCNCC2)cc1 [Compound 82] | 3010 to 10000 | 101 to 1000 |
| CNCCN(C)Cc1c[nH]nc1-c1ccccc1-c1ccccc1 [Compound 46] | > 10000 | 3010 to 10000 |

| Structure (SMILES) | IC50 (Human CARM1 (PRMT4)) [nM] | IC50 (Full-length human PRMT6) [nM] |
| --- | --- | --- |
| CNCCN(C)Cc1cnn(C)c1-c1ccc(F)cc1 [Compound 10] | 1010 to 3000 | – |
| CNCCN(C)Cc1c[nH]nc1-c1cccc(NC(C)=O)c1 [Compound 42] | 1010 to 3000 | < 100 |
| CN(CCN)Cc1nn(C)cc1-c1ccc(C#N)cc1 [Compound 83] | 1010 to 3000 | < 100 |
| CN(CCN)Cc1c[nH]nc1-c1ccc(Cl)cc1Cl [Compound 86] | 3010 to 10000 | < 100 |
| CC(C)N(CCN)Cc1c[nH]nc1-c1ccc(F)cc1 [Compound 75] | > 10000 | 1010 to 3000 |
| CNCCN(C)Cc1cn(CC2CCOCC2)nc1-c1ccc(F)cc1 [Compound 11] | > 10000 | – |
| CNCCN(C)Cc1c[nH]nc1-c1ccc(OC)c(F)c1 [Compound 52] | 1010 to 3000 | < 100 |
| CNCCN(C)Cc1c[nH]nc1-c1cccc(C(C)=O)c1 [Compound 44] | 1010 to 3000 | < 100 |
| COCCn1cc(CN(C)CCN(C)C)c(-c2ccc(F)cc2)n1 [Compound 61] | > 10000 | – |
| CN(CCN)Cc1cn(C2COC2)nc1-c1ccc(F)cc1 [Compound 77] | 3010 to 10000 | 101 to 1000 |
| CNCCN(C)Cc1c[nH]nc1-c1ccc(CC#N)cc1 [Compound 34] | 1010 to 3000 | < 100 |
| CCN(CCNC)Cc1c[nH]nc1-c1ccc(F)cc1 [Compound 9] | 1010 to 3000 | – |
| CN(CCN)Cc1c[nH]nc1-c1cccc(C#N)c1 [Compound 70] | 3010 to 10000 | < 100 |
| CN(CCN)Cc1cn(CC(O)CO)nc1-c1ccc(F)cc1 (centres unmarked) [Compound 76] | > 10000 | 1010 to 3000 |
| CNCCN(C)Cc1c[nH]nc1-c1ccccc1Oc1ccccc1 [Compound 36] | > 10000 | 1010 to 3000 |
| CN(CCN)Cc1cn(CCO)nc1-c1ccc(F)cc1 [Compound 66] | 3010 to 10000 | 1010 to 3000 |
| CN(CCN)Cc1cnn(CCO)c1-c1ccc(F)cc1 [Compound 65] | 3010 to 10000 | 101 to 1000 |
| CNCCN(C)Cc1c[nH]nc1-c1ccccc1NS(C)(=O)=O [Compound 41] | > 10000 | 3010 to 10000 |
| Cc1ccc(-c2n[nH]cc2CN(C)CCN)c(C)c1 [Compound 88] | 3010 to 10000 | < 100 |
| CN(CCN)Cc1c[nH]nc1-c1ccc(C(C)(C)C)cc1 [Compound 74] | 3010 to 10000 | < 100 |

| Structure (SMILES) | IC50 (Human CARM1 (PRMT4)) [nM] | IC50 (Full-length human PRMT6) [nM] |
| --- | --- | --- |
| CN(CCN)Cc1c[nH]nc1-c1cccc(F)c1 [Compound 71] | 101 to 1000 | < 100 |
| CN(CCN)Cc1c[nH]nc1-c1ccccc1F [Compound 72] | 3010 to 10000 | < 100 |
| CNCCN(C)Cc1c[nH]nc1-c1c(OC)cccc1OC [Compound 56] | > 10000 | 1010 to 3000 |
| CN(CCN)Cc1c[nH]nc1-c1ccc(OC(F)F)cc1 [Compound 94] | 101 to 1000 | < 100 |
| CN(CCN)Cc1cn[nH]c1-c1ccc(F)cc1 [Compound 1] | 1010 to 3000 | < 100 |
| CCN(CCN)Cc1c[nH]nc1-c1ccc(F)cc1 [Compound 62] | 101 to 1000 | < 100 |
| CNCCN(C)Cc1cnn(CC2CCOCC2)c1-c1ccc(F)cc1 [Compound 12] | 3010 to 10000 | 101 to 1000 |
| CN(CCN)Cc1cnn(CC2COC2)c1-c1ccc(F)cc1 [Compound 80] | > 10000 | – |
| CNCCN(C)Cc1c[nH]nc1-c1cccc2ccccc12 [Compound 57] | 1010 to 3000 | < 100 |
| CNCCN(C)Cc1c[nH]nc1-c1ccc(F)cc1F [Compound 49] | 3010 to 10000 | < 100 |
| CNCCN(C)Cc1c[nH]nc1-c1cc(Cl)ccc1OC [Compound 53] | > 10000 | 101 to 1000 |
| CC(C)Oc1ccc(-c2n[nH]cc2CN(C)CCN)cc1 [Compound 67] | 101 to 1000 | – |
| CN(CCN)Cc1c[nH]nc1-c1ccccc1 [Compound 73] | 1010 to 3000 | < 100 |
| Cc1ccc(-c2n[nH]cc2CN(C)CCN)c(Cl)c1 [Compound 90] | 3010 to 10000 | < 100 |
| COCCn1ncc(CN(C)CCN(C)C)c1-c1ccc(F)cc1 [Compound 64] | > 10000 | 1010 to 3000 |
| CNCCN(C)Cc1c[nH]nc1-c1cc(F)ccc1F [Compound 50] | 3010 to 10000 | < 100 |
| CNCCN(C)Cc1c[nH]nc1-c1cccc(OC)c1OC [Compound 54] | > 10000 | 101 to 1000 |
| CN(CCN)Cc1c[nH]nc1-c1ccc(F)cc1Cl [Compound 89] | 3010 to 10000 | < 100 |
| CNCCN(C)Cc1c[nH]nc1-c1ccc(-c2ccccc2)cc1 [Compound 47] | < 100 | < 100 |
